pIC50: −log10 of the molar value. Where two headings read alike, the source gives them in different places.
Key:
[1] = system: squirrel monkeys; test: Locomotor response in primates (Example 5); type: in vivo
[2] = molecular target: T1, dopamine transporter (Rattus norvegicus, UniProt P23977); test: Inhibition of binding of dopamine to the dopamine transporter (Example 4)
T1 construct: from tissue

[3] = molecular target: T1, dopamine transporter; test: Inhibition of dopamine reuptake (Example 4); type: biochemical
[4] = system: monkeys; test: Previous evaluation, Task I: Drug Discrimination; type: in vivo
Excerpt: It is of interest to compare the results of the present study with the results of our previous evaluation of Compound 1 in Task I: Drug Discrimination. […] Higher doses of Compound 1 were not examined in the present study.

[5] = system: male rhesus monkeys; conditions: for Rates of cocaine self-administration, % of control levels: 30 min pretreatment
[6] = system: squirrel monkeys; test: Locomotor response in primates (Example 5); type: in vivo; remark: listed apart in the source
Experimental: Compound 1 was tested for its ability to induce a locomotor response in primates according to procedures disclosed in Rosenzweig-Lipson et al., Psychopharmacology 107:186 (1992). Three squirrel monkeys were administered 1.0 mg/kg of Compound 1. […] The results for each monkey are shown below in Table III and is presented as the responses per second on each day of the test. Controls were established by testing each monkey prior to administering Compound 1.

[7] = system: male Swiss-Webster mice; test: Dose response study of induced locomotor stimulation (Digiscan), 1 h session (Example 2); type: in vivo, Swiss-Webster mice (Hsd:ND4); conditions: IP, locomotor activity
Experimental: A dose response study of induced locomotor stimulation was conducted according to the following procedure. The study was conducted using a 16 or 32 Digiscan locomotor activity testing chambers (40.5×40.5×30.5 cm) housed in sets of two, within sound-attenuating chambers. A panel of infrared beams (16 beams) and corresponding photodetectors were located in the horizontal direction along the sides of each activity chamber. A 15-W incandescent light above each chamber provided dim illumination. Fans provided an 80-dB ambient noise level within the chamber. Separate groups of 8 non-habituated male Swiss-Webster mice (Hsd:ND4, aged 2-3 months) were injected via the intraperitoneal (IP) route with either vehicle (deionized water for Compounds 1-4, carboxymethylcellulose for Compound 6 or methyl cellulose for Compound 7)) or test compound (1, 2.5, 5, 10, 25 or 50 mg/kg for Compound 3; 1, 3, 10 and 30 mg/kg for Compounds 1, 2 and 4; 3, 10, 30 or 100 mg/kg for Compound 6; and 1, 3, 10, 30 and 100 mg/kg for Compound 7). Compounds 1-4 were injected immediately prior to locomotor activity testing. […] In all studies, horizontal activity (interruption of photocell beams) was measured for 1 hour within 10 minute periods. Testing was conducted with one mouse per activity chamber.
FIGS. 1, 3, 5 and 7 show average horizontal activity counts/10 minutes as a function of time, immediately following injection of Compound 1, Compound 2, Compound 3 and Compound 4, respectively. FIGS. 13 and 15 show average horizontal activity counts/10 minutes as a function of time, beginning twenty minutes following injection of Compound 6 and Compound 7, respectively. The period 30-60 minutes was selected for analysis of dose-response data. Using TableCurve 2D v2.03 software (Jandel Scientific), the mean average horizontal activity counts/10 minutes for this period were fit to a 3-parameter logistic peak function of log10 dose (with the constant set to 1989, the mean of the vehicle-treated group), and the maximum effect estimated from the resulting curve. […] FIGS. 2, 4, 6, 8, 14 and 16 show average horizontal activity counts/10 minutes over 30 minutes versus the amount administered of Compound 1, Compound 2, Compound 3, Compound 4, Compound 6 and Compound 7, respectively.

T1 sequence (P23977 whole entry): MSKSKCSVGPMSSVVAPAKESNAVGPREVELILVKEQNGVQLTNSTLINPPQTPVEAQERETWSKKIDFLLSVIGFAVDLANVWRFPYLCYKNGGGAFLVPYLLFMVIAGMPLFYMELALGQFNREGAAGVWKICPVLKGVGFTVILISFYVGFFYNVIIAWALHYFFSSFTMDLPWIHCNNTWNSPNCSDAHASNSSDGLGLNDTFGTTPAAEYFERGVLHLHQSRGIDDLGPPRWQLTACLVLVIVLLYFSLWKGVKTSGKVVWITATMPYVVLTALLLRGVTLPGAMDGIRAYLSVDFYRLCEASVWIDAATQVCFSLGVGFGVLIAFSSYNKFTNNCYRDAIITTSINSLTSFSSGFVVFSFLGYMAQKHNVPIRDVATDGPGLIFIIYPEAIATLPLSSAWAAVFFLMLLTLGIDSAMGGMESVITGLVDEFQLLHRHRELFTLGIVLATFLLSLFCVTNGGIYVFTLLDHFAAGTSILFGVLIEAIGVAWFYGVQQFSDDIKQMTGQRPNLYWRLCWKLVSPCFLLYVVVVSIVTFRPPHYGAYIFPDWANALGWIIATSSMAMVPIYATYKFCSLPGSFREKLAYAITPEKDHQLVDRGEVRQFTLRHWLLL

Question: For `CN(C)C1CC(c2ccc(Cl)c(Cl)c2)c2ccccc21` (stereo not shown) [Compound 1, N,N-dimethyl-3-(3',4'-dichlorophenyl)-1-indanamine], which “Onset of locomotor response” value ([1]; 1.0 mg/kg Compound 1, 25 minute intervals) is on record?
Answer: The value was “slow onset locomotor response”.

Question: What about the “Number of Responses/Second” value ([1]; 1.0 mg/kg Compound 1, Day 1, Monkey 4 (control 1.15)) of the same molecule?
Answer: Its value is 1.63 responses/second.

Question: And the “Number of Responses/Second” value ([1]; 1.0 mg/kg Compound 1, Day 1, Monkey 5 (control 0.51))?
Answer: Its value is 0.76 responses/second.

Question: And the “Number of Responses/Second” value ([1]; 1.0 mg/kg Compound 1, Day 2, Monkey 5 (control 0.51))?
Answer: The value was 1.50 responses/second.

Question: And the “Number of Responses/Second” value ([1]; 1.0 mg/kg Compound 1, Day 2, Monkey 6 (control 0.93))?
Answer: Its value is 1.31 responses/second.

Question: And the “Number of Responses/Second” value ([1]; 1.0 mg/kg Compound 1, Day 3, Monkey 4 (control 1.15))?
Answer: Its value is 1.92 responses/second.

Question: What about the “Number of Responses/Second” value ([1]; 1.0 mg/kg Compound 1, Day 3, Monkey 5 (control 0.51)) of the same molecule?
Answer: The value was 1.51 responses/second.

Question: And the “Number of Responses/Second” value ([1]; 1.0 mg/kg Compound 1, Day 3, Monkey 6 (control 0.93))?
Answer: The value was 1.40 responses/second.

Question: What about the “Number of Responses/Second” value ([1]; 1.0 mg/kg Compound 1, Day 4, Monkey 6 (control 0.93)) of the same molecule?
Answer: Its value is 1.16 responses/second.

Question: And the “Number of Responses/Second” value ([1]; 1.0 mg/kg Compound 1, Day 5, Monkey 5 (control 0.51))?
Answer: Its value is 0.82 responses/second.

Question: What about the “Number of Responses/Second” value ([1]; 1.0 mg/kg Compound 1, Day 5, Monkey 6 (control 0.93)) of the same molecule?
Answer: The value was 1.14 responses/second.

Question: What about the “Number of Responses/Second” value ([1]; 1.0 mg/kg Compound 1, Day 6, Monkey 5 (control 0.51)) of the same molecule?
Answer: The value was 0.62 responses/second.

Question: And the “Number of Responses/Second” value ([1]; 1.0 mg/kg Compound 1, Day 7, Monkey 5 (control 0.51))?
Answer: Its value is 0.60 responses/second.

Question: And the pIC50 [2]?
Answer: The pIC50 was 7.33.

Question: What about the Uptake/Binding ([3]; ratio of IC50 values) of the same molecule?
Answer: Its Uptake/Binding is 1.19.

Question: What about the pIC50 ([3]; read-out: DA Uptake, inhibition of dopamine reuptake IC50) of the same molecule?
Answer: The pIC50 was 7.25.

Question: What about the “Effect on response rates” value ([4]; Compound 1, 3.2 mg/kg) of the same molecule?
Answer: The value was “little effect on response rates in two monkeys, increased response rates in one monkey, and eliminated responding in only one monkey”.

Question: And the “Effect on responding, feeding and behavior” value ([4]; Compound 1, 10 mg/kg, one monkey)?
Answer: Its value is “eliminated operant responding, decreased free feeding and produced overt behavioral effects including hyperactivity and agitation for several days”.

Question: And the “Effect on response rates” value ([4]; Compound 1, doses up to 1.0 mg/kg)?
Answer: Its value is “little or no effect on response rates”.

Question: And the “Rates of cocaine self-administration, % of control levels” value ([5]; 3.2 mg/kg Compound 1 i.m.)?
Answer: Its value is “approximately 25 % of control levels”.

Question: And the “Rates of cocaine self-administration and food-maintained responding across cocaine unit doses” value ([5]; 3.2 mg/kg Compound 1 i.m., all three monkeys)?
Answer: The value was “decreased rates of cocaine self-administration across a wide range of cocaine unit doses while producing relatively minor effects on food-maintained responding”.

Question: What about the “Rates of food-maintained responding” value ([5]; 3.2 mg/kg Compound 1 i.m., monkey 89B056) of the same molecule?
Answer: Its value is “usually unaffected”.

Question: What about the “Rates of food-maintained responding” value ([5]; 3.2 mg/kg Compound 1 i.m., monkey J3A) of the same molecule?
Answer: The value was “small and inconsistent changes”.

Question: What about the “Cocaine unit doses at which self-administration rates were decreased” value ([5]; 3.2 mg/kg Compound 1 i.m., monkey WH8) of the same molecule?
Answer: Its value is 0.001-0.01 mg/kg/inj.

Question: What about the “Rates of food-maintained responding, % of control levels” value ([5]; 3.2 mg/kg Compound 1 i.m., monkey WH8, first food component) of the same molecule?
Answer: The value was “approximately 30 % of control levels”.

Question: What about the “Rates of food-maintained responding” value ([5]; 3.2 mg/kg Compound 1 i.m., monkey WH8, second food component) of the same molecule?
Answer: Its value is “unaffected”.

Question: And the “Range of cocaine doses across which self-administration was decreased” value ([5]; 3.2 mg/kg Compound 1 i.m., three monkeys)?
Answer: The value was “one to two”.

Question: And the “Rates of cocaine self-administration, % of control levels” value ([5]; 0.1-1.0 mg/kg Compound 1 i.m.)?
Answer: The value was 50-75 % of control levels.

Question: What about the Overt behavioral effects ([5]; Compound 1, 0.1-3.2 mg/kg i.m., prior to or during test session) of the same molecule?
Answer: Its Overt behavioral effects is “did not produce noticeable overt behavioral effects”.

Question: What about the “Time of peak of locomotor response” value ([6]; 1.0 mg/kg Compound 1) of the same molecule?
Answer: Its value is “three”.

Question: What about the “Number of Responses/Second” value ([6]; 1.0 mg/kg Compound 1, Day 1, Monkey 6 (control 0.93)) of the same molecule?
Answer: Its value is 1.01 responses/second.

Question: And the “Number of Responses/Second” value ([6]; 1.0 mg/kg Compound 1, Day 2, Monkey 4 (control 1.15))?
Answer: Its value is 1.72 responses/second.

Question: What about the “Number of Responses/Second” value ([6]; 1.0 mg/kg Compound 1, Day 4, Monkey 4 (control 1.15)) of the same molecule?
Answer: Its value is 1.06 responses/second.

Question: What about the “Number of Responses/Second” value ([6]; 1.0 mg/kg Compound 1, Day 4, Monkey 5 (control 0.51)) of the same molecule?
Answer: Its value is 1.01 responses/second.

Question: What about the “Number of Responses/Second” value ([6]; 1.0 mg/kg Compound 1, Day 5, Monkey 4 (control 1.15)) of the same molecule?
Answer: Its value is 1.05 responses/second.

Question: What about the “Maximal Effect Relative to Cocaine” value [7] of the same molecule?
Answer: The value was 0.82.

Question: What about the ED50 ([7]; Mus musculus, 30-60 min period, read-out: ED50 (dose producing 1/2 maximal stimulant activity)) of the same molecule?
Answer: Its ED50 is 4.88 mg/kg.

— patent US6011070A, “Slow-onset, long-lasting dopamine reuptake blockers” (priority 1997, dated 2000)
